In patent US6544756B1, “Sorbitol dehydrogenase, microorganism for producing same, process for the production thereof, method for the measurement of sorbitol and reagent for the quantitative determination therefor” (Unitika Ltd., priority 1999, dated 2003):

What was measured:
Assay type in all cases: biochemical
[1] = tested on: sorbitol dehydrogenase derived from Pseudomonas fluorescens A-989 strain; experiment: Substrate specificity (Vmax/Km, Km) of sorbitol dehydrogenase from A-989 strain; conditions: enzyme from Pseudomonas fluorescens A-989; for Vmax/Km: relative to D-sorbitol taken as 100
Method: (§1) The sorbitol dehydrogenase of the invention has the foregoing physicochemical properties. In the present invention, the measurement of the activity of sorbitol dehydrogenase was carried out by adding an enzyme solution to a 80 mM Tris-HCl buffer (pH 9.0) containing 50 mM of D-sorbitol and 2 mM of NAD^+, slowly mixing them, and then measuring the change of absorbance at 340 nm by means of a spectrophotometer. The measurement was made at a temperature of 30° C. The amount of enzyme required to produce 1 μmol of NADH per minute was defined to be 1 unit (U).
(§2) (2) Substrate specificity: The Vmax/Km of the sorbitol dehydrogenase of the invention with respect to various substrates (relative to that with respect to D-sorbitol taken as 100) is about 40 or less for galactitol and about 3 or less for iditol, preferably about 30 or less for galactitol and about 2 or less for iditol. The Km for D-sorbitol is about 6 mM or less, preferably about 4 mM or less. Among the sorbitol dehydrogenases of the invention, the substrate specificities of those derived from Flavimonas oryzihabitans A-520 strain, Pseudomonas fluorescens A-989 strain and Pseudomonas fluorescens A-654 strain are shown in Table 2 below.
(§3) Vmax means the maximum velocity of the reaction at the saturated substrate concentration and Km means the Michaelis constant. The Vmax/Km values indicates the apparent […] of the enzyme reaction as a whole, which is generally used as an index for reflecting the substrate specificity. These values may be measured and calculated in accordance with the methods described in Chapter 8 of Biochemistry, second edition, by Albert Lehninger, 1975, Worth Publishers, Inc. or in Enzyme Structure and Mechanism, second edition, by Alan Fersht, 1984, W. H. Freeman & Co.

[2] = tested on: sorbitol dehydrogenase derived from Pseudomonas fluorescens A-654 strain; experiment: Substrate specificity (Vmax/Km, Km) of sorbitol dehydrogenase from A-654 strain; conditions: enzyme from Pseudomonas fluorescens A-654; for Vmax/Km: relative to D-sorbitol taken as 100
Method: as §1, §2, §3

[3] = tested on: sorbitol dehydrogenase derived from Flavimonas oryzihabitans A-520 strain; experiment: Substrate specificity (Vmax/Km, Km) of sorbitol dehydrogenase from A-520 strain; conditions: enzyme from Flavimonas oryzihabitans A-520; for Vmax/Km: relative to D-sorbitol taken as 100
Method: as §1, §2, §3

Row | SMILES | Vmax/Km [1] [%] | Vmax/Km [2] [%] | Vmax/Km [3] [%] | Km [1] [µM] | Km [2] [µM] | Km [3] [µM]
1 | O=C[C@H](O)[C@@H](O)[C@H](O)[C@H](O)CO [D-Glucose, D-glucose] | 0 | 0 | 0 |  |  | 
2 | OC[C@@H](O)[C@H](O)[C@H](O)[C@@H](O)CO [Galactitol] | 36.8 | 31.9 | 28.9 | 3100 | 2000 | 1900
3 | OC[C@H](O)[C@@H](O)[C@H](O)[C@@H](O)CO [Iditol, L-iditol] | 2.78 | 1.55 | 1.99 |  |  | 
4 | OC[C@@H](O)[C@@H](O)[C@H](O)[C@H](O)CO [Mannitol, D-mannitol] | 0 | 0 | 0 |  |  | 

Other lines, results leading:

Row | Vmax/Km [1] [%] | Vmax/Km [2] [%] | Vmax/Km [3] [%] | Km [1] [µM] | Km [2] [µM] | Km [3] [µM] | SMILES
5 | 0 | 0 | 0 |  |  |  | OC[C@@H](O)C(O)[C@H](O)CO [Arbitol, D-arabitol]
6 | 100 | 100 | 100 | 5900 | 3500 | 2500 | OC[C@@H](O)[C@@H](O)[C@H](O)[C@@H](O)CO [Sorbitol, D-sorbitol]
7 | 0 | 0 | 0 |  |  |  | OC[C@@H](O)[C@H](O)[C@@H](O)CO [Xylitol, xylitol]
